Measured values published in patent publication EP0547317A1, “Endothelin antagonists” (TAKEDA CHEMICAL INDUSTRIES, LTD., priority 1991, dated 1993).
Bridge positions count the residues as written; N and C are the ends. Peptide text beside a SMILES is read from it.

System: porcine coronary smooth muscles
Test: Assay of constrictor suppressing activity on porcine coronary smooth muscles (antagonism of endothelin-1 constriction)
Assay type: cell-based
Details: for pA₂: antagonistic activity on constriction by endothelin-1 given cumulatively about 15 minutes after the compound, negative logarithm of molar concentration of antagonist shifting the dose response curve by a factor of 2; for Relative potency: antagonistic activity on the constriction of porcine coronary smooth muscles, Example 1 = 100
Method: • (1) Assay of Constrictor Suppressing Activity on Porcine Coronary Smooth Muscles Spiral strips 2 mm x 15 mm prepared from the coronary right ramus circumflexus from which the adventitial connective tissues and the endothelial cells were removed were set to 4 ml organ baths. The tension of each strip was detected by a force displacement transducer UL-10GR (Minebea), and recorded by a polygraph (NEC Sanei). The organ baths were maintained at 37°C, and filled with a Krebs-Henseleit solution (composition: 118 mM NaCl, 4.7 mM KCl, 2.5 mM CaCl₂, 1.2 mM KH₂PO₄, 25.0 mM NaHCO₃, 1.2 mM MgSO₄, 10.0 mM glucose) gassed with 95% O₂ and 5% CO₂. A tension of 1.25 to 1.5 g was applied to each of the strips, followed by equilibration for 1.5 hours. 60 mM KCl was repeatedly applied thereto at intervals of 30 minutes until the constriction response became constant. After additional equilibration for 1.5 hours, a sample for assay was given thereto. The constriction of the strips was normalized by the constriction response of the individual strips to 60 mM KCl and statistically processed. The suppressing activity was determined as a pA₂ value by giving endothelin-1 cumulatively about 15 minutes after the compound having a predetermined concentration was given, and comparing the constriction thereof with that of a control sample in which only endothelin-1 was given. […] Such a case has not been reported yet. […] The affinity for the receptor was assayed by the following method.

Structure (SMILES) | pA₂ | Relative potency
CC[C@H](C)[C@H](NC(=O)[C@H](CC(C)C)NC(=O)[C@@H](NC(=O)[C@H](CC(C)C)NC(=O)[C@H](Cc1c[nH]cn1)NC(=O)[C@@H]1CSSC[C@H](N)C(=O)N[C@@H](CO)C(=O)N[C@H]2CSSC[C@H](NC(=O)[C@H](CCC(=O)O)NC(=O)[C@H](CCCCN)NC(=O)[C@H](CC(=O)O)NC(=O)[C@H](CCSC)NC(=O)[C@H](C)NC(=O)[C@H](CO)NC(=O)[C@H](CO)NC2=O)C(=O)N[C@@H](C(C)C)C(=O)N[C@@H](Cc2ccc(O)cc2)C(=O)N[C@@H](Cc2ccccc2)C(=O)N1)[C@@H](C)O)C(=O)N[C@@H](Cc1c[nH]c2ccccc12)C(=O)O [Example 15, [Ala⁶, Thr¹⁸, Leu¹⁹]-ET-1] (H-CSCSSAMDKECVYFCHLTLIW-OH; disulfide 1-15, 3-11) | 6.5 | 6
CC[C@H](C)[C@H](NC(=O)[C@H](CC(C)C)NC(=O)[C@@H](NC(=O)[C@H](CC(C)C)NC(=O)[C@H](Cc1c[nH]cn1)NC(=O)[C@@H]1CSSC[C@H](N)C(=O)N[C@@H](CO)C(=O)N[C@H]2CSSC[C@H](NC(=O)[C@H](CCC(=O)O)NC(=O)[C@H](CCCCN)NC(=O)[C@H](CC(=O)O)NC(=O)[C@H](C)NC(=O)[C@H](CC(C)C)NC(=O)[C@H](CO)NC(=O)[C@H](CO)NC2=O)C(=O)N[C@@H](C(C)C)C(=O)N[C@@H](Cc2ccc(O)cc2)C(=O)N[C@@H](Cc2ccccc2)C(=O)N1)[C@@H](C)O)C(=O)N[C@@H](Cc1c[nH]c2ccccc12)C(=O)O [Example 16, [Ala⁷, Thr¹⁸, Leu¹⁹]-ET-1] (H-CSCSSLADKECVYFCHLTLIW-OH; disulfide 1-15, 3-11) | 7.2 | 32
